Type in all cases: in vivo
In assay [1] the test system is Myzus persicae (Green Peach Aphid). Description: Example B8: Activity against Myzus persicae (sprayed sunflower leaf discs). The note with it: foliar, 144 h, application rate of 200 ppm, mixed ages, 6 days after infestation. As to the method:
Example B8: Activity Against Myzus persicae (Green Peach Aphid)
Sunflower leaf discs were placed onto agar in a 24-well microtiter plate and sprayed with aqueous test solutions prepared from 10′000 ppm DMSO stock solutions. After drying, the leaf discs were infested with an aphid population of mixed ages. The samples were assessed for mortality 6 days after infestation.

Assay [2] has the same test system. Briefly: Example B10: Activity against Myzus persicae (sucrose solution, Parafilm feeding). Conditions: 120 h, test rate of 12 ppm, 5 days after infestation. The source says: Example B10: Activity Against Myzus persicae (Green Peach Aphid)
Test compounds prepared from 10′000 ppm DMSO stock solutions were applied by pipette into 24-well microtiter plates and mixed with sucrose solution. The plates were closed with a stretched Parafilm. A plastic stencil with 24 holes was placed onto the plate and infested pea seedlings were placed directly on the Parafilm. The infested plate was closed with a gel blotting paper and another plastic stencil and then turned upside down. The samples were assessed for mortality 5 days after infestation.

Assay [3] relates to Diabrotica balteata (Corn Root Worm). Description: Example B6: Activity against Diabrotica balteata (sprayed maize sprouts). The note with it: 96 h, application rate of 200 ppm, L2 larvae, 4 days after infestation, read-out: effect in at least one of the two categories (mortality or growth inhibition). As to the method:
Example B6: Activity Against Diabrotica Balteata (Corn Root Worm)
Maize sprouts placed onto an agar layer in 24-well microtiter plates were treated with aqueous test solutions prepared from 10′000 ppm DMSO stock solutions by spraying. After drying, the plates were infested with L2 larvae (6 to 10 per well). The samples were assessed for mortality and growth inhibition in comparison to untreated samples 4 days after infestation.

Assay [4] has as its system Plutella xylostella (Diamond-Back Moth). Briefly: Example B3: Plutella xylostella larvicide, feeding/contact activity, preventative (artificial diet, 96-well). The note with it: 216 h, application rate of 500 ppm, mortality assessed 9 days after treatment. As to the method:
Example B3: Plutella xylostella (Diamond-Back Moth) larvicide, feeding/contact activity, preventative Artificial diet was dispensed into a 96-well microtiter plate and treated with aqueous test solutions prepared from 10′000 ppm DMSO stock solutions. Eggs were suspended above the treated diet and first instar larvae hatched onto the diet. Mortality was assessed 9 days after treatment.

The test system of assay [5] is Plutella xylostella (Diamond Back Moth). Briefly: Example B11: Activity against Plutella xylostella (artificial diet, 24-well, L2 larvae). The note with it: 120 h, application rate of 200 ppm, 5 days after infestation, read-out: effect in at least one of the two categories (mortality or growth inhibition). As to the method: Example B11: Activity Against Plutella xylostella (Diamond Back Moth)
24-well microtiter plates with artificial diet were treated with aqueous test solutions prepared from 10′000 ppm DMSO stock solutions by pipetting. After drying, the plates were infested with L2 larvae (10 to 15 per well). The samples were assessed for mortality and growth inhibition in comparison to untreated samples 5 days after infestation.

Assay [6] relates to Myzus persicae (Green Peach Aphid). Description: Example B9: Activity against Myzus persicae (roots of pea seedlings in test solutions). Conditions: 144 h, test rate of 24 ppm, mixed ages, 6 days after placing seedlings into test solutions. As to the method: Example B9: Activity Against Myzus persicae (Green Peach Aphid)
Roots of pea seedlings infested with an aphid population of mixed ages were placed directly into aqueous test solutions prepared from 10′000 DMSO stock solutions. The samples were assessed for mortality 6 days after placing seedlings into test solutions.

Assay [7] concerns Spodoptera littoralis (Egyptian Cotton Leaf Worm). Description: Example B4: Activity against Spodoptera littoralis (sprayed cotton leaf discs). Conditions: foliar, 72 h, application rate of 200 ppm, L1 larvae, 3 days after infestation. As to the method:
Example B4: Activity Against Spodoptera littoralis (Egyptian Cotton Leaf Worm)
Cotton leaf discs were placed on agar in 24-well microtiter plates and sprayed with aqueous test solutions prepared from 10′000 ppm DMSO stock solutions. After drying the leaf discs were infested with five L1 larvae. The samples were assessed for mortality, anti-feedant effect, and growth inhibition in comparison to untreated samples 3 days after infestation. Control of Spodoptera littoralis by a test sample is given when at least one of the categories mortality, anti-feedant effect, and growth inhibition is higher than the untreated sample.

For assay [8] the test system is unchanged. Briefly: Example B5: Activity against Spodoptera littoralis (systemic, lettuce grown on treated agar). Conditions: 144 h, test rate of 12.5 ppm, 6 days after infestation, uptake by lettuce roots, read-out: effect in at least one of the three categories (mortality, anti-feeding, or growth inhibition). The source says: Example B5: Activity Against Spodoptera littoralis (Egyptian Cotton Leaf Worm)
Test compounds were applied by pipette from 10′000 ppm DMSO stock solutions into 24-well plates and mixed with agar. Lettuce seeds were placed onto the agar and the multi well plate was closed by another plate which contained also agar. After 7 days the compound was absorbed by the roots and the lettuce grew into the lid plate. The lettuce leaves were then cut off into the lid plate. Spodoptera eggs were pipetted through a plastic stencil onto a humid gel blotting paper and the lid plate was closed with it. The samples were assessed for mortality, anti-feedant effect and growth inhibition in comparison to untreated samples 6 days after infestation.

In assay [9] the test system is Tetranychus urticae (Two-Spotted Spider Mite). Briefly: Example B12: Activity against Tetranychus urticae (sprayed bean leaf discs). Conditions: foliar, 192 h, application rate of 200 ppm, mixed population (mobile stages), 8 days after infestation. As to the method: Example B12: Activity Against Tetranychus urticae (Two-Spotted Spider Mite)
Bean leaf discs on agar in 24-well microtiter plates were sprayed with aqueous test solutions prepared from 10′000 ppm DMSO stock solutions. After drying the leaf discs were infested with a mite population of mixed ages. The samples were assessed for mortality on mixed population (mobile stages) 8 days after infestation.

Assay [10] relates to Euschistus heros (Neotropical Brown Stink Bug). Briefly: Example B7: Activity against Euschistus heros (sprayed soybean leaves). Conditions: 120 h, application rate of 200 ppm, N2 nymphs, 5 days after infestation, read-out: effect in at least one of the two categories (mortality or growth inhibition). As to the method:
Example B7: Activity Against Euschistus heros (Neotropical Brown Stink Bug)
Soybean leaves on agar in 24-well microtiter plates were sprayed with aqueous test solutions prepared from 10′000 ppm DMSO stock solutions. After drying the leaves were infested with N2 nymphs. The samples were assessed for mortality and growth inhibition in comparison to untreated samples 5 days after infestation.

As usually defined, the mortality is the percentage killed. A lower mortality goes with a weak lethal effect. By pest or weed control is commonly meant the degree to which the test organism was suppressed or injured, in per cent. In turn, `CCSc1cccnc1-c1cn(-c2cncc(C(F)(F)F)c2)nn1` [Compound P19] returned a mortality at 200 ppm in [1] of at least 80%. Also, the mortality at 12 ppm in [2] is at least 80%. In addition, in assay [3], the effect (mortality or growth inhibition) at 200 ppm is at least 80%. In assay [4], the pest or weed control at 500 ppm was at least 70%.

In [1], `CCS(=O)(=O)c1cccnc1-c1cn(-c2cncc(C(F)(F)F)c2)nn1` [Compound P20] registered a mortality at 200 ppm of at least 80%. The percent effect (mortality or growth inhibition) at 200 ppm in assay [5] is at least 80%. The compound further registered a mortality at 24 ppm in [6] of at least 80%. The percent control (mortality, anti-feedant effect or growth inhibition) at 200 ppm in [7] is at least 80%. Further, the percent effect (mortality, anti-feeding or growth inhibition) at 12.5 ppm in assay [8] was at least 80%. In addition, the effect (mortality or growth inhibition) at 200 ppm in [3] is at least 80%. The compound also returned a pest or weed control at 500 ppm in assay [4] of at least 70%.

Turning to `CCS(=O)(=O)c1cc(Br)cnc1-c1cn(-c2cccc(C(F)(F)F)c2)nn1` [Compound P12, 5-bromo-3-ethylsulfonyl-2-[1-[3-(trifluoromethyl)phenyl]triazol-4-yl]pyridine], in assay [5], the percent effect (mortality or growth inhibition) at 200 ppm is at least 80%. The same compound registered a percent control (mortality, anti-feedant effect or growth inhibition) at 200 ppm in assay [7] of at least 80%. Moreover, the effect (mortality or growth inhibition) at 200 ppm in [3] is at least 80%. For the same compound, in assay [9], the mortality at 200 ppm is at least 80%. The pest or weed control at 500 ppm in [4] is at least 70%.

Regarding `CCS(=O)(=O)c1cccnc1-c1cn(-c2ccc(C(F)(F)F)nc2)nn1` [Compound P25], the percent effect (mortality or growth inhibition) at 200 ppm in [5] and in assay [10] was at least 80% throughout. The mortality at 24 ppm in [6] is at least 80%. In addition, in assay [3], the effect (mortality or growth inhibition) at 200 ppm was at least 80%. This compound also yielded a pest or weed control at 500 ppm in [4] of at least 70%.
